From article PMC3578121 (Journal of molecular biology, 2012)
“And” between values parts separate entries of the source, which are not always exact repeats. Identical values can stand only once. Like-named read-outs stand apart in the source and are kept apart here.

Assays:
[1] = biological target: VCCβ-prism (isolated β-prism domain of Vibrio cholerae cytolysin) (Vibrio cholerae serotype O1, UniProt P09545); assay: biochemical; assay type: binding
[2] = test system: rabbit whole blood lysis by wild-type VCC
D617K mutant of VCC = assay type: binding, Vibrio cholerae
VCCβ-prism = VCCβ-prism (Vibrio cholerae serotype O1, UniProt P09545); assay type: binding
VCC = settings: cited from earlier work
VCCWT = assay type: binding, Vibrio cholerae

Chain of VCCβ-prism (isolated β-prism domain of Vibrio cholerae cytolysin) (P09545 611-741 limits assumed): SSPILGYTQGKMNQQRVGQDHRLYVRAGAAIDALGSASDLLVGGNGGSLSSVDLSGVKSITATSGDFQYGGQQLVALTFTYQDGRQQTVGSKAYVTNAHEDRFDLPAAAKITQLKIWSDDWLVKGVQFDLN
Chain of VCCβ-prism (P09545 611-741 limits assumed): as above

In the case of `OC[C@H]1O[C@H](O[C@H]2[C@H](O)[C@@H](O)C(O)O[C@@H]2CO)[C@H](O)[C@@H](O)[C@@H]1O` (mixture of isomers) [Maltose, glucose-α1,4-glucose], the “KD of maltose relative to KD of Me-α-mannose” value [1] is reported as 10 fold, the Kd [1] is reported as 30.9 ± 3.17 mM and the ΔG [1] is reported as -2090 cal/mol.

In the case of `C[C@H](O)[C@@H](O)[C@@H](O)[C@H](O)C=O` [Fucose, L-fucose], the “Binding detected by ITC” value [1] is reported as “did not exhibit measurable binding”.

In the case of `OC[C@H]1OC(O)[C@H](O)[C@@H](O)[C@@H]1O` (stereo partly drawn) [Glucose], the Kd [1] is reported as 12 ± 0.6 mM and the ΔG [1] is reported as -2679 cal/mol.

`OC[C@H]1OC(O)[C@@H](O)[C@@H](O)[C@@H]1O` (stereo partly drawn) [Mannose, D-mannose] showed a Kd [1] of 14.8 ± 1.18 mM and a ΔG [1] of -2456 cal/mol.

In the case of `CO[C@H]1O[C@H](CO)[C@H](O)[C@H](O)[C@H]1O` [Me-α-Galactose, Me-α-D-galactose], the “Binding detected by ITC” value [1] is reported as “did not bind”.

For `COC1OC(CO)C(O)C(O)C1O` [Me-α-Glucose, Me-α-D-glucose], the Kd [1] was 7.1 mM and 7.09 mM and the ΔG [1] was -2944 cal/mol.

In the case of `COC1OC(CO)C(O)C(O)C1O` (stereo not drawn) [Me-α-Mannose, methyl-α-mannose], the “Effect on half-life (t1/2) of rabbit blood hemolysis by VCC” value [2] is reported as “no effect”, the “Increase in affinity of Me-α-D-mannose over D-mannose” value [1] is reported as “roughly five-fold increase” and the Kd [1] is reported as 3.24 ± 0.1 mM. For the same compound, the ΔG [1] was -3424 cal/mol and the “Binding detected by ITC” value (D617K mutant of VCC) was “could not detect measurable binding”.

With `CO[C@@H]1O[C@H](CO)[C@@H](O)[C@H](O)[C@@H]1O` [Me-β-D-mannose] the “Binding detected by ITC” value [1] was “loss of binding”.

With `COC1OC(CO)C(O)C(O)C1O` [Me-β-Galactose, Me-β-D-galactose] the “Binding detected by ITC” value [1] was “did not bind”.

With `COC1OC(CO)C(O)C(O)C1O` [Me-β-Glucose, Me-β-D-glucose] the “Binding detected by ITC” value [1] was “did not bind”.

In the case of `CC(=O)N[C@@H]1[C@@H](O)[C@H](O)[C@@H](CO)O[C@H]1O` [N-acetylglucosamine, N-acetyl-D-glucosamine], the “Binding detected by ITC” value [1] is reported as “did not exhibit measurable binding”.

For `O=C[C@H](O)[C@@H](O)[C@H](O[C@@H]1O[C@H](CO)[C@@H](O)[C@H](O)[C@H]1O)[C@H](O)CO` [cellobiose, glucose-β1,4-glucose], the “Binding detected by ITC” value [1] was “did not bind”.

For “GlcNAcβ1-2Manα1-6(GlcNAcβ1-2Manα1-3)Manβ1-4GlcNAcβ1-4GlcNAc [NGA2]”, the association rate ka (VCCβ-prism) was 37,000 M^−1s^−1, the dissociation rate kd (VCCβ-prism) was 0.040 s⁻¹ and the Kd (VCCβ-prism; read-out: Affinity (approximate summary)) was about 100 nM. It also gave a Kd (VCCβ-prism; read-out: KD (equilibrium analysis)) of 183 nM and a Kd (VCCβ-prism; read-out: KD (kinetic fit)) of 108 nM.

For fetuin, the “Inhibition of VCC activity” value (VCC) is given as “inhibited”.

With galactose-α-1,4-galactose [galabiose] the “Average fluorescence of VCC binding to glycan” value (“Average fluorescence” below) (VCCWT) was at most 100 RFUs.

In the case of “galactose-β-1,4(fucose-α-1,3)N-acetyl glucosamine [Lewis X]”, the “Average fluorescence” value (VCCWT) is reported as at most 100 RFUs.

For lacto-N-biose, the “Average fluorescence” value (VCCWT) was at most 100 RFUs.
